In the experiment the target is T1, human AMPK α1β1γ1 enzyme (Homo sapiens, UniProt Q13131+Q9Y478).
T1 construct: purchased Carna Biosciences, Inc
The experiment in a line: AMPK activator evaluation, Test Example 1 (mobility shift, FL-Peptide 7). The experiment is classed as biochemical. Conditions: human AMPK α1β1γ1, control without compound = 100%; for Emax: read-out: Emax (maximum rate of increase in activity within the measurement range). How it is done: To a buffer solution consisting of a 50 mM HEPES-NaOH buffer solution (pH 7.0), 100 mM NaCl, 10 mM magnesium chloride, 0.1% bovine serum albumin, 0.2 mM sodium orthovanadate(V), 1 mM ethylene glycol-bis(2-aminoethyl ether)-N,N,N′,N′-tetraacetic acid (EGTA), 5 mM disodium (3-glycerophosphate and 2 mM dithiothreitol, a human AMPK α1β1γ1 enzyme (manufactured by Carna Biosciences, Inc.) was added in an amount to give a conversion rate of approximately 10% by reaction for 2 hours, and a compound dissolved in DMSO was added thereto so as to have a 1% DMSO concentration. The obtained liquid was left to stand for 10 minutes.
To the liquid, a substrate solution consisting of a 50 mM HEPES-NaOH buffer solution (pH 7.0), 100 mM NaCl, 10 mM magnesium chloride, 0.1% bovine serum albumin, 0.2 mM sodium orthovanadate(V), 1 mM ethylene glycol-bis(2-aminoethyl ether)-N,N,N′,N′ tetraacetic acid (EGTA), 5 mM disodium β-glycerophosphate, 2 mM dithiothreitol, 0.4 mM ATP and 3 μM FL-Peptide 7 (manufactured by Caliper Life Sciences, Inc.) was added in equal amount (10 μl in total). The obtained liquid was allowed to react at 25° C. for 2 hours, and 10 μl of 20 mM EDTA was then added thereto to stop the reaction.
To detect phosphorylated fluorescent substrates, the reaction liquid was applied to a measuring device, LabChip EZ Reader II manufactured by Caliper Life Science, Inc., for detecting fluorescence by using differences in mobility due to differences in charge. The setting conditions for the device were pressure, −1.5 PSI; upstream voltage, −2250 V; downstream voltage, −400 V; post sample buffer sip time, 40 seconds; final delay, 120 seconds; and peak order, Product First.

We go through 40 compounds from patent publication US9133186B2, “Hetero ring-fused imidazole derivative having AMPK activating effect” (Shionogi & Co., Ltd., priority 2010, dated 2015).

For orientation: Emax means the greatest response seen or fitted, relative to the assay's reference.

T1 sequence (Q13131 10-559 limits assumed): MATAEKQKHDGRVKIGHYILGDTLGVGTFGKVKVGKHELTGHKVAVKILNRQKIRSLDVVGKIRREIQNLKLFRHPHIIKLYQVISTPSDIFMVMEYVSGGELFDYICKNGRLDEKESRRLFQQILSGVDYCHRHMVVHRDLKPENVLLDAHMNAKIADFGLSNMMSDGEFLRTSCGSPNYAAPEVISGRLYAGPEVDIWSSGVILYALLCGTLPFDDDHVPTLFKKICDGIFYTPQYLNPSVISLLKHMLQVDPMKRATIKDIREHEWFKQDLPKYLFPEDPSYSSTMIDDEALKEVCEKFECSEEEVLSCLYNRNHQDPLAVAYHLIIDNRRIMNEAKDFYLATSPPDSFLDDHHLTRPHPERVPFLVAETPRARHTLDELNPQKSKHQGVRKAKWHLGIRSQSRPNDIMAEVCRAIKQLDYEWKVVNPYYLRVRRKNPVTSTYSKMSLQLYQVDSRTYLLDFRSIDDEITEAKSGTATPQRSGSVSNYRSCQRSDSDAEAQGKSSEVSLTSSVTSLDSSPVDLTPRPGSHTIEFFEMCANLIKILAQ
T1 sequence (Q9Y478 whole entry): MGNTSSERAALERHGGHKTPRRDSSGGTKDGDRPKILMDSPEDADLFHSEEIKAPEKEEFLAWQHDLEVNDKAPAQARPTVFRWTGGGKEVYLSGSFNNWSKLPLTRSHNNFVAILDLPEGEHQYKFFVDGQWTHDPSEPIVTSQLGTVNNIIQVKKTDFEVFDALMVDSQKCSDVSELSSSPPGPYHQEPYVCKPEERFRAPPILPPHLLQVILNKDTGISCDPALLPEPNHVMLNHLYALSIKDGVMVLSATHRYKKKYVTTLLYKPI
T1 sequence (P54619 whole entry partner): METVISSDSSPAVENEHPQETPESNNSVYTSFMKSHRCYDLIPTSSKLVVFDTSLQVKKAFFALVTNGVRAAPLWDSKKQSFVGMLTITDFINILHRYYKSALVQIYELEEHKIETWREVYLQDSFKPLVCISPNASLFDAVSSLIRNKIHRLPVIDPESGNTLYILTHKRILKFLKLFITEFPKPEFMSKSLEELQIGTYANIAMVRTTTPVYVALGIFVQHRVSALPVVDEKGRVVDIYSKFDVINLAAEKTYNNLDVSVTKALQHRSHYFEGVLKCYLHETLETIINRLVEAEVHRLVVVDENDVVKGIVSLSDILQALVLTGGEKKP

Regarding `CC(=O)NC(C)(C)c1ccc(Oc2nc3nc(-c4ccc(C5COC5)cc4)c(Cl)cc3[nH]2)cc1` [Compound D-111], the “EC150 (compound concentration showing 150% relative to the control)” value was found to be 150 nM and the maximum response (Emax) was determined as 238%.

In the case of `Cc1ccc(Oc2nc3nc(-c4ccc(OCC(C)(C)O)cc4)c(Cl)cc3[nH]2)cc1C(=O)O` [Compound C-21], the “EC150 (compound concentration showing 150% relative to the control)” value is reported as 36 nM and the Emax was determined as 338%.

Consider `Cc1ccc(Oc2nc3nc(N4CCCCC4)c(Cl)cc3[nH]2)cc1C(=O)O` [Compound B-3], for which the “EC150 (compound concentration showing 150% relative to the control)” value amounted to 23 nM and the Emax is 313%.

Turning to `CC(=O)NCC(C)(C)c1ccc(Oc2nc3nc(-c4ccc(N5CCOCC5)cc4)c(Cl)cc3[nH]2)cc1` [Compound D-33], the “EC150 (compound concentration showing 150% relative to the control)” value is 52 nM and the maximal response (Emax) came out at 220%.

Turning to `Cc1ccc(Oc2nc3nc(-c4ccc(C5(CO)CC5)cc4)c(Cl)cc3[nH]2)cc1C(=O)O` [Compound C-37], the “EC150 (compound concentration showing 150% relative to the control)” value is listed as 1.3 nM and the Emax is 349%.

As to `NCc1ccc(Oc2nc3nc(-c4ccc(N5CCOCC5)cc4)c(Cl)cc3[nH]2)cc1` [Compound B-117], the “EC150 (compound concentration showing 150% relative to the control)” value came to 370 nM and the Emax came out at 243%.

Take `Cc1ccc(Oc2nc3nc(-c4cccc(O)c4)c(Cl)cc3[nH]2)cc1C(=O)O` [Compound B-40]: the “EC150 (compound concentration showing 150% relative to the control)” value amounted to 110 nM and the Emax turned out to be 297%.

With `Cc1ccc(Oc2nc3nc(-c4ccc(CO)cc4)c(Cl)cc3[nH]2)cc1C(=O)O` [Compound B-13], the “EC150 (compound concentration showing 150% relative to the control)” value turned out to be 76 nM and the Emax stood at 311%.

Take `CC(=O)NC(C)(C)c1ccc(Oc2nc3nc(-c4ccc(C5(C(C)O)CC5)cc4)c(Cl)cc3[nH]2)cc1` [Compound D-103]: the “EC150 (compound concentration showing 150% relative to the control)” value is given as 110 nM and the Emax was 238%.

In the case of `CC(=O)NC(C)(C)c1ccc(Oc2nc3nc(-c4ccc(C5(CO)CC5)cc4)c(Cl)cc3[nH]2)cn1` [Compound D-42], the “EC150 (compound concentration showing 150% relative to the control)” value stood at 260 nM and the Emax was determined as 187%.

Turning to `Cc1ccc(-c2ccc(-c3nc4nc(Oc5ccc(C)c(C(=O)O)c5)[nH]c4cc3Cl)cc2)cc1` [Compound B-32], the “EC150 (compound concentration showing 150% relative to the control)” value stood at 70 nM and the Emax came out at 301%.

As to `O=C(O)c1cc(Oc2nc3nc(-c4ccc(N5CCOCC5)cc4)c(Cl)cc3[nH]2)ccc1Cl` [Compound C-32], the “EC150 (compound concentration showing 150% relative to the control)” value came to 68 nM and the maximal response (Emax) was 253%.

Take `CC(=O)NC(C)(C)c1ccc(Oc2nc3nc(-c4ccc(OCCO)cc4)c(Cl)cc3[nH]2)cc1` [Compound D-16]: the “EC150 (compound concentration showing 150% relative to the control)” value was found to be 8.5 nM and the Emax amounted to 280%.

With `CC(=O)NC(C)(C)c1ccc(Oc2nc3nc(-c4ccc(N5CCOCC5)cc4)c(Cl)cc3[nH]2)cn1` [Compound D-1], the “EC150 (compound concentration showing 150% relative to the control)” value was 430 nM and the maximal effect (Emax) was 182%.

For `CC(=O)NC(C)(C)c1ccc(Oc2nc3nc(-c4ccc(C5(CO)COC5)cc4)c(Cl)cc3[nH]2)cc1` [Compound D-110], the “EC150 (compound concentration showing 150% relative to the control)” value was found to be 270 nM and the maximal effect (Emax) was 220%.

`COc1ccc(Oc2nc3nc(-c4ccc(N5CCOCC5)cc4)c(Cl)cc3[nH]2)cc1C(=O)O` [Compound C-24]: the “EC150 (compound concentration showing 150% relative to the control)” value worked out at 17 nM and the Emax was 237%.

With `Clc1cc2[nH]c(Oc3ccccc3)nc2nc1-c1ccc(N2CCOCC2)cc1` [Compound B-104], the “EC150 (compound concentration showing 150% relative to the control)” value turned out to be 190 nM and the Emax came to 267%.

`O=C1CCc2ccc(Oc3nc4nc(-c5ccc(N6CCOCC6)cc5)c(Cl)cc4[nH]3)cc2N1` [Compound B-141]: the “EC150 (compound concentration showing 150% relative to the control)” value worked out at 61 nM and the maximum response (Emax) worked out at 319%.

For `CN1CCc2cc(-c3nc4nc(Oc5ccc(C(C)(C)C(N)=O)cc5)[nH]c4cc3Cl)ccc21` [Compound D-3], the “EC150 (compound concentration showing 150% relative to the control)” value came out at 220 nM and the Emax was 192%.

For `CC(C)(C(=O)NCCO)c1ccc(Oc2nc3nc(-c4ccc(N5CCOCC5)cc4)c(Cl)cc3[nH]2)cn1` [Compound D-55], the “EC150 (compound concentration showing 150% relative to the control)” value stood at 2700 nM and the Emax was 177%.

In the case of `CC(=O)NC(C)(C)c1ccc(Oc2nc3nc(-c4ccc(C5CCOCC5)cc4)c(Cl)cc3[nH]2)cc1` [Compound D-107], the “EC150 (compound concentration showing 150% relative to the control)” value stood at 26 nM and the maximal response (Emax) is 249%.

For `CONC(=O)C(C)(C)c1ccc(Oc2nc3nc(-c4ccc(N5CCOCC5)cc4)c(Cl)cc3[nH]2)cn1` [Compound D-102], the “EC150 (compound concentration showing 150% relative to the control)” value was found to be 4300 nM and the maximal effect (Emax) came to 172%.

As to `O=C(O)COc1ccc(Oc2nc3nc(-c4ccc(N5CCOCC5)cc4)c(Cl)cc3[nH]2)cc1` [Compound B-110], the “EC150 (compound concentration showing 150% relative to the control)” value was 160 nM and the Emax came out at 288%.

For `CC(=O)NC(C)(C)c1ncc(Oc2nc3nc(-c4ccc(N5CCOCC5)cc4)c(Cl)cc3[nH]2)cn1` [Compound D-2], the “EC150 (compound concentration showing 150% relative to the control)” value is reported as 220 nM and the Emax worked out at 255%.

Turning to `Cc1ccc(Oc2nc3nc(-c4ccccc4)c(Cl)cc3[nH]2)cc1C(=O)O` [Compound B-10], the “EC150 (compound concentration showing 150% relative to the control)” value came to 280 nM and the maximal effect (Emax) came to 290%.

`Cc1ccc(Oc2nc3nc(-c4ccc(OCC(C)C)cc4)c(Cl)cc3[nH]2)cc1C(=O)O` [Compound C-33]: the “EC150 (compound concentration showing 150% relative to the control)” value was determined as 52 nM and the maximum response (Emax) amounted to 329%.

On to `OCCc1ccc(Oc2nc3nc(-c4ccc(N5CCOCC5)cc4)c(Cl)cc3[nH]2)cc1` [Compound B-137], for which the “EC150 (compound concentration showing 150% relative to the control)” value was found to be 25 nM and the Emax is 301%.

For the compound `CC(C)(C(N)=O)c1ccc(Oc2nc3nc(-c4ccc(N5CCOCC5)cc4)c(Cl)cc3[nH]2)cc1` [Compound C-98], the “EC150 (compound concentration showing 150% relative to the control)” value came out at 1700 nM and the maximum response (Emax) is 165%.

Take `CC(=O)NC(C)(C)c1ccc(Oc2nc3nc(-c4ccc(-c5ccccc5O)cc4)c(Cl)cc3[nH]2)cc1` [Compound D-39]: the “EC150 (compound concentration showing 150% relative to the control)” value worked out at 0.6 nM and the Emax was found to be 310%.

As to `CC(C)(CO)c1ccc(Oc2nc3nc(-c4ccc(C5(CO)CC5)cc4)c(Cl)cc3[nH]2)cn1` [Compound D-72], the “EC150 (compound concentration showing 150% relative to the control)” value stood at 220 nM and the maximum response (Emax) turned out to be 192%.

For `Clc1cc2[nH]c(Oc3cccc(-c4nnn[nH]4)c3)nc2nc1-c1ccc(N2CCOCC2)cc1` [Compound C-1], the “EC150 (compound concentration showing 150% relative to the control)” value came to 66 nM and the Emax was 295%.

Consider `NC(=O)c1cccc2ccc(Oc3nc4nc(-c5ccc(N6CCOCC6)cc5)c(Cl)cc4[nH]3)cc12` [Compound B-113], for which the “EC150 (compound concentration showing 150% relative to the control)” value stood at 13 nM and the Emax stood at 316%.

In the case of `CC(=O)NC(C)(C)c1ccc(Oc2nc3nc(-c4ccc(C5(CO)CCC5)cc4)c(Cl)cc3[nH]2)cc1` [Compound D-58], the “EC150 (compound concentration showing 150% relative to the control)” value is reported as 66 nM and the Emax amounted to 224%.

`CC(C)(CO)c1ccc(Oc2nc3nc(-c4ccc(N5CCOCC5)cc4)c(Cl)cc3[nH]2)cc1` [Compound C-99]: the “EC150 (compound concentration showing 150% relative to the control)” value is reported as 170 nM and the Emax stood at 205%.

Turning to `CC(C)(C(=O)NCCO)c1ccc(Oc2nc3nc(-c4ccc(N5CCOCC5)cc4)c(Cl)cc3[nH]2)cc1` [Compound C-107], the “EC150 (compound concentration showing 150% relative to the control)” value was 300 nM and the Emax was 232%.

Regarding `CC(=O)NC(C)(C)c1ccc(Oc2nc3nc(-c4ccc(CCO)cc4)c(Cl)cc3[nH]2)cc1` [Compound D-17], the “EC150 (compound concentration showing 150% relative to the control)” value was found to be 11 nM and the Emax was determined as 282%.

For the compound `O=P(O)(O)c1cccc(Oc2nc3cc(Cl)c(-c4ccc(N5CCOCC5)cc4)nc3[nH]2)c1` [Compound C-118], the “EC150 (compound concentration showing 150% relative to the control)” value was determined as 2.1 nM and the Emax was determined as 334%.

For `Cc1ccc(Oc2nc3cc(-c4ccc5c(ccn5C)c4)ccc3[nH]2)cc1C(=O)O` [Compound B-5], the “EC150 (compound concentration showing 150% relative to the control)” value turned out to be 4700 nM and the Emax is 176%.

For `CNCC(C)(C)c1ccc(Oc2nc3nc(-c4ccc(N5CCOCC5)cc4)c(Cl)cc3[nH]2)cc1` [Compound D-41], the “EC150 (compound concentration showing 150% relative to the control)” value is given as 8300 nM and the Emax was 159%.

On to `CC(C)(C(=O)O)c1ccc(Oc2nc3nc(-c4ccc(N5CCCC5)cc4)c(F)cc3[nH]2)cc1` [Compound C-39], for which the “EC150 (compound concentration showing 150% relative to the control)” value is 35 nM and the maximal effect (Emax) is 279%.
